Patent US20170281732A1, “METHODS OF TREATING MILD BRAIN INJURY” (OXEIA BIOPHARMACEUTICALS, INC., priority 2014, published 2017)

Assays:
[1] = tested on: oxidative burst in inflammatory cells following mBI; assay: Oxidative burst in brain inflammatory cells following mBI (controlled cortical impact, DHR 123 flow cytometry); assay type: in vivo, C57/B6 mice; settings: subcutaneous ghrelin after mBI, compared to mBI without treatment; mice
Experimental: Ghrelin variant administration reduces oxidative burst in inflammatory cells following mBI. Since no well-accepted animal model exists for concussions, a very small cerebral lesion that closely mimics mBI is used as a model of mBI. C57/B6 mice anesthetized with 5% isoflurane in oxygen (1.7 L/min) are given 0.3 mg/kg buprenorphine subcutaneously for analgesia prior to infliction of the mild brain injury. Anesthesia is assessed by paw pinch reflex. After creating a burr hole through the dura with a dental drill, a lesion using a controlled cortical impactor (CCI) is used to create injury 1 mm lateral and posterior to the bregma (5.0 mm/sec at a depth of 1.0 mm).
Animals are separated into three treatment groups: 1) Sham, 2) mBI, and 3) mBI plus ghrelin variant. A variety of doses can be tested depending upon the particular ghrelin variant. For example, 1 to 50 μg at one or more time points. As one example, treatment with subcutaneous ghrelin variant: 1 dose of 10 μg following mBI and additional dose 10 μg 1 hour after. Brain tissue is harvested at 2-8 hours, preferably about 6 hours post-injury. […] The fluorescence is then measured (AFU), higher intensity means greater oxidative burst and, therefore greater concentration or amount of ROS. […] Oxidative burst, which is a marker for ROS, can be measured by respiratory burst using flow cytometry (e.g., FL1 channel with 488-nm laser).

[2] = tested on: rat model of Parkinson's disease; settings: cited from earlier work
[3] = tested on: ischemic brain injury; settings: in vivo; cited from earlier work
[4] = Matsumoto et al., 2001, Biochem. Biophys. Res. Commun. 284:655-659; cited from earlier work
[5] = target: GHS-R (Homo sapiens, UniProt Q92847); assay: GHS-R antagonist activity in a cell based assay (Table 4, Exemplary GHS-R Modulating Compounds)
Sequence of GHS-R (Q92847 whole entry): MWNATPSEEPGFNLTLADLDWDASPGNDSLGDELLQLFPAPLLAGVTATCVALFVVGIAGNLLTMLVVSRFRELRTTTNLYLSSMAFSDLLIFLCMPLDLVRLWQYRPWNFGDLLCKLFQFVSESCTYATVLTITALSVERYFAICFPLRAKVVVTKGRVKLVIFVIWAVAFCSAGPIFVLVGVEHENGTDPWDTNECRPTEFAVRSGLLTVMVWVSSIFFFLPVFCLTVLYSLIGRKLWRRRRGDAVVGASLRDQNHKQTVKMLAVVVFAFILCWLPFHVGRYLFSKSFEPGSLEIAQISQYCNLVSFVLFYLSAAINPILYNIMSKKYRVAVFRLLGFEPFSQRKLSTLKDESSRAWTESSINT

Ghrelin (GSSFLSPEHQRVQQRKESKKPPAKLQPR)
Oxidative burst as quantified by Arbitrary Fluorescence Units (AFU) [1]: reduced the oxidative burst compared to mBI

C=CC[C@]12CCCN1C(=O)CNC2=O [NNZ-2591, cyclo-L-glycyl-L-2-allylproline]
motor function [2]: improves motor function
neuroprotection after ischemic brain injury [3]: neuroprotective

CCCCCCCCOC[C@H](NC(=O)CCCCN)C(=O)N[C@@H](Cc1ccccc1)C(=O)N[C@@H](CC(C)C)C(=O)NCCN [5-aminopentanoyl-Ser(Octyl)-Phe-Leu-aminoethylamide]
ghrelin activity [4]: potent ghrelin activity

CCN(CC)CCCS(=O)(=O)N[C@H](CCc1ccccc1)c1nc(-c2ccc3nccn3c2)n[nH]1 [Compound 134, 3-Diethylamino-propane-1-sulfonic acid {(R)-1-[5-(1H-imidazo[1,2,-a]pyridin-6-yl)-2H-[1,2,4]triazol-3-yl]-3-phenyl-propyl}-amide]
Ki [5]: 100 to 500 nM
